Laboratory results from ChEMBL document CHEMBL1201862, “PubChem BioAssay data set” (2004).
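1) Cells in 96-well plates. 2) Compound, 48 h, 5 concentrations. 3) Linear interpolation between surrounding doses. 4) Unreached endpoint = highest concentration. Here, GI50 denotes the concentration required for 50% inhibition of growth.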 Activity calls are given as the source filed them. Cut-off read from the data, not from the text of the source: active = GI50 up to about 1.1 µM and inactive = higher.

Key:
Assay in all cases: NCI anticancer screen, dose series, 48 h
[1] = system: HCT-15
[2] = system: IGROV-1
[3] = system: SF-295
[4] = system: CAKI-1
[5] = system: SK-MEL-5
[6] = system: SNB-19
[7] = system: NCI-H226
[8] = system: MOLT-4
[9] = system: A549
[10] = system: HOP-62
[11] = system: LOX IMVI
[12] = system: KM12
[13] = system: RXF 393
[14] = system: HCT-116
[15] = system: TK-10
[16] = system: SK-OV-3
[17] = system: SW-620
[18] = system: Malme-3M
[19] = system: SK-MEL-2

| Structure (SMILES) | GI50 [1] [µM] | GI50 [2] | GI50 [3] | GI50 [4] | GI50 [5] | GI50 [6] | GI50 [7] | GI50 [8] | GI50 [9] | GI50 [10] | GI50 [11] | GI50 [12] | GI50 [13] | GI50 [14] | GI50 [15] | GI50 [16] | GI50 [17] | GI50 [18] | GI50 [19] |
| --- | --- | --- | --- | --- | --- | --- | --- | --- | --- | --- | --- | --- | --- | --- | --- | --- | --- | --- | --- |
| N#CC(C#N)=C1NC(=O)C(c2ccccc2)C(=O)N1 (stereo not drawn) | > 100 | > 100 µM (inactive) | > 100 µM (inactive) | > 100 µM (inactive) | > 100 µM (inactive) | > 100 µM (inactive) | > 100 µM (inactive) | > 100 µM (inactive) | > 100 µM (inactive) | > 100 µM (inactive) | > 100 µM (inactive) | > 100 µM (inactive) | > 100 µM (inactive) | > 100 µM (inactive) | > 100 µM (inactive) | > 100 µM (inactive) | > 100 µM (inactive) | > 100 µM (inactive) |  |
| CCOC(=O)C(C)NC(=O)NC12CC3CC(CC(F)(C3)C1)C2 (stereo not drawn) |  | > 100 µM (inactive) |  |  | 46 µM (inactive) | > 100 µM (inactive) |  | 62.1 µM (inactive) | > 100 µM (inactive) | > 100 µM (inactive) | > 100 µM (inactive) | > 100 µM (inactive) | 27.5 µM (inactive) | > 100 µM (inactive) | > 100 µM (inactive) | > 100 µM (inactive) | > 100 µM (inactive) | 63 µM (inactive) | > 100 µM (inactive) |
| COC(=O)c1cc(-c2cccn2C)c2c(c1C(=O)OC)c1ccccc1n2C | 22.4 | > 100 µM (inactive) | 41.3 µM (inactive) |  | 44.3 µM (inactive) | > 100 µM (inactive) |  | 3.13 µM (inactive) | 31.8 µM (inactive) |  | 56 µM (inactive) | 53.7 µM (inactive) | > 100 µM (inactive) |  | > 100 µM (inactive) | > 100 µM (inactive) | 85.1 µM (inactive) | > 100 µM (inactive) | > 100 µM (inactive) |
| O=C(/C=C/c1cccs1)c1ccsc1 | 16.8 | 25.1 µM (inactive) | 32.4 µM (inactive) | 56.5 µM (inactive) | 18.9 µM (inactive) | 18.9 µM (inactive) | 21.1 µM (inactive) | 16.9 µM (inactive) | 38 µM (inactive) | 73.5 µM (inactive) | 17.2 µM (inactive) | > 10 µM (inactive) |  |  | 22.7 µM (inactive) | 33.4 µM (inactive) | 29 µM (inactive) | 22.2 µM (inactive) | 36.2 µM (inactive) |
| CC1=C2[C@@H](c3ccccc3)C3C=CC2(c2ccccc23)N(C(=O)Nc2cccc3ccccc23)C1=O (stereo partly drawn) | > 100 | > 100 µM (inactive) | > 100 µM (inactive) | > 100 µM (inactive) | > 100 µM (inactive) | > 100 µM (inactive) |  | > 100 µM (inactive) | > 100 µM (inactive) | > 100 µM (inactive) | > 100 µM (inactive) | > 100 µM (inactive) |  | > 100 µM (inactive) |  | > 100 µM (inactive) | > 100 µM (inactive) | > 100 µM (inactive) |  |
| N#CC(/C(CCC(=O)Nc1ccc(Cl)cc1)=N/NC(=O)c1cc2ccccc2cc1O)c1ccccc1 (stereo not drawn) |  | 31.7 µM (inactive) | 39.8 µM (inactive) |  | 19.4 µM (inactive) | 47.9 µM (inactive) | 42.2 µM (inactive) | 22.2 µM (inactive) | 40.8 µM (inactive) | 31.3 µM (inactive) | 14.5 µM (inactive) | 35.9 µM (inactive) | 56.5 µM (inactive) | 31.3 µM (inactive) | 56.5 µM (inactive) |  | 50.4 µM (inactive) | 50 µM (inactive) | 19.7 µM (inactive) |
| O=C(O)CCC(=O)Oc1ccc(O)c2c1CCCC2=O | > 100 | > 100 µM (inactive) | > 100 µM (inactive) |  | 49.8 µM (inactive) | > 100 µM (inactive) | > 100 µM (inactive) | > 100 µM (inactive) | > 100 µM (inactive) | > 100 µM (inactive) | > 100 µM (inactive) | > 100 µM (inactive) | > 100 µM (inactive) | > 100 µM (inactive) | > 100 µM (inactive) | > 100 µM (inactive) | > 100 µM (inactive) | > 100 µM (inactive) | > 100 µM (inactive) |
| O=c1[nH]c(=O)n([C@H]2C[C@@H](CO)[C@@H](O)C2)cc1I | > 100 | > 100 µM (inactive) | > 10 µM (inactive) | > 100 µM (inactive) | > 100 µM (inactive) | > 100 µM (inactive) | > 100 µM (inactive) | > 100 µM (inactive) | > 100 µM (inactive) | > 100 µM (inactive) | > 100 µM (inactive) | > 100 µM (inactive) |  | > 100 µM (inactive) | > 100 µM (inactive) | > 100 µM (inactive) | > 100 µM (inactive) | > 100 µM (inactive) | > 100 µM (inactive) |
| CO[C@@H](C(=O)OC1C=CC2(CC1)C(=O)N(C)c1ccccc12)c1ccccc1 (stereo partly drawn) | > 100 | > 100 µM (inactive) | > 100 µM (inactive) | > 100 µM (inactive) | 34.3 µM (inactive) | > 100 µM (inactive) |  | 40.4 µM (inactive) | > 100 µM (inactive) | > 100 µM (inactive) | > 100 µM (inactive) | > 100 µM (inactive) |  | 52.5 µM (inactive) | > 100 µM (inactive) | > 100 µM (inactive) | > 100 µM (inactive) |  | > 100 µM (inactive) |
| COc1ccc2nc(-c3ccc(O)cc3)ccc2c1 |  | > 100 µM (inactive) | > 100 µM (inactive) |  | > 100 µM (inactive) | > 100 µM (inactive) | > 100 µM (inactive) | > 100 µM (inactive) | > 100 µM (inactive) | > 100 µM (inactive) | > 100 µM (inactive) | > 100 µM (inactive) | > 100 µM (inactive) | > 100 µM (inactive) | > 100 µM (inactive) | > 100 µM (inactive) | > 100 µM (inactive) | > 100 µM (inactive) |  |
| O=C(OC[C@H]1C[C@H]2C(=O)CCC[C@H]2O1)c1ccccc1 | > 100 | > 100 µM (inactive) | > 100 µM (inactive) | > 100 µM (inactive) | > 100 µM (inactive) | > 100 µM (inactive) | > 100 µM (inactive) | > 100 µM (inactive) | > 100 µM (inactive) | > 100 µM (inactive) | > 100 µM (inactive) | > 100 µM (inactive) |  | > 100 µM (inactive) | > 100 µM (inactive) | > 100 µM (inactive) | > 100 µM (inactive) |  | > 100 µM (inactive) |
| NC(=O)Cn1c(=O)[nH]c(=O)c2[nH]cnc21 | > 100 | > 100 µM (inactive) |  |  | > 100 µM (inactive) | > 100 µM (inactive) | > 100 µM (inactive) | > 100 µM (inactive) | > 100 µM (inactive) | > 100 µM (inactive) | > 100 µM (inactive) | > 100 µM (inactive) | > 100 µM (inactive) | > 100 µM (inactive) | > 100 µM (inactive) | > 100 µM (inactive) | > 100 µM (inactive) | > 100 µM (inactive) | > 100 µM (inactive) |
